Measured values reported in US20250051390A1, “NOVEL ADIPONECTIN-DERIVED PEPTOID DERIVATIVE AND USE THEREOF” (SEOUL NATIONAL UNIVERSITY HOSPITAL, priority 2021, published 2025).

Legend:
[1] = tested on: AMPK phosphorylation; test: AMPK phosphorylation activity in mouse adipocytes (Western blot); assay type: cell-based; details: 3T3-L1, 10 μM, 24 hours, Western blot; APN5 = 1.0
Experimental: There were confirmed effects of the peptoid derivative of the present disclosure on the expression and receptor activity of adiponectin in mouse adipocytes as a main adiponectin production site. A mouse adipocyte cell line 3T3-L1 was treated with each of the peptoid derivatives of the present disclosure at a concentration of 10 μM and cultured for 24 hours, and then cells were obtained. Thereafter, the protein was extracted and the effect of adiponectin on AMPK phosphorylation, which was responsible for the main downstream signaling, was confirmed by Western blot.

[2] = biological target: T1, CYP1A2 (Homo sapiens, UniProt P05177); test: CYP inhibition assay, CYP1A2; details: human liver microsomes 0.25 mg/ml, 10 μM, 15 minutes
T1 sequence (P05177 1-516): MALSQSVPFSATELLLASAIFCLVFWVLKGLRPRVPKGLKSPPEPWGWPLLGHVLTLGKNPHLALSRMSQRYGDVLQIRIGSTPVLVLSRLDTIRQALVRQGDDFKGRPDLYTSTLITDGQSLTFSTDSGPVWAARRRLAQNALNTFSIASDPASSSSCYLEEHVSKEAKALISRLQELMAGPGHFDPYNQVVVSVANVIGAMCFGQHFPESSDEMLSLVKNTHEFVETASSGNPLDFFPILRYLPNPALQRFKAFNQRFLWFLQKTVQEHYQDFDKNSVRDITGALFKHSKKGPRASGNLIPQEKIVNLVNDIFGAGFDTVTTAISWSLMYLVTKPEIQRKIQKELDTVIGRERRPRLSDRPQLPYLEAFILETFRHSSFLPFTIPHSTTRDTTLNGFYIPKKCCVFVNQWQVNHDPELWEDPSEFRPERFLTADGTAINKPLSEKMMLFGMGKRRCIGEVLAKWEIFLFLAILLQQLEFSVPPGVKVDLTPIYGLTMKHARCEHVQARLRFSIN
Experimental: (§1) Metabolites of each CYP isoenzyme indicator drug produced through the reaction were analyzed by LC-MS/MS using the Shimadzu Nexera XR system and TSQ vantage (Thermo).

[3] = biological target: CYP2C19 (Homo sapiens, UniProt P33261); test: CYP inhibition assay, CYP2C19; details: human liver microsomes 0.25 mg/ml, 10 μM, 15 minutes
Sequence of CYP2C19 (P33261 whole entry): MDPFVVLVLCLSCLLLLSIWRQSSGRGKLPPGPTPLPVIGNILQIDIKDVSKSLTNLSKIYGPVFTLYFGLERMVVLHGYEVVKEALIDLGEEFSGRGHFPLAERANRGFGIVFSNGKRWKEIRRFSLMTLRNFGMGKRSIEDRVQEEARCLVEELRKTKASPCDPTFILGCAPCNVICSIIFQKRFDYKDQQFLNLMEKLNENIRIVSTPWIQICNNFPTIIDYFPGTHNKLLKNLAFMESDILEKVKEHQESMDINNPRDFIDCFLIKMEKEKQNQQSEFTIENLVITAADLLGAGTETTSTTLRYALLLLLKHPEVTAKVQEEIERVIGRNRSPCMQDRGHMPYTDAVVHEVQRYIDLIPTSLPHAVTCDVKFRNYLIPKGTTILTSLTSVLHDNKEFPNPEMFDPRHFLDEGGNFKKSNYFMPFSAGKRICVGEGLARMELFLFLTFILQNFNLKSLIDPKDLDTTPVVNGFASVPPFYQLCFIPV
Experimental: as §1

[4] = biological target: CYP2D6 (Homo sapiens, UniProt P10635); test: CYP inhibition assay, CYP2D6; details: human liver microsomes 0.25 mg/ml, 10 μM, 15 minutes
Sequence of CYP2D6 (P10635 whole entry): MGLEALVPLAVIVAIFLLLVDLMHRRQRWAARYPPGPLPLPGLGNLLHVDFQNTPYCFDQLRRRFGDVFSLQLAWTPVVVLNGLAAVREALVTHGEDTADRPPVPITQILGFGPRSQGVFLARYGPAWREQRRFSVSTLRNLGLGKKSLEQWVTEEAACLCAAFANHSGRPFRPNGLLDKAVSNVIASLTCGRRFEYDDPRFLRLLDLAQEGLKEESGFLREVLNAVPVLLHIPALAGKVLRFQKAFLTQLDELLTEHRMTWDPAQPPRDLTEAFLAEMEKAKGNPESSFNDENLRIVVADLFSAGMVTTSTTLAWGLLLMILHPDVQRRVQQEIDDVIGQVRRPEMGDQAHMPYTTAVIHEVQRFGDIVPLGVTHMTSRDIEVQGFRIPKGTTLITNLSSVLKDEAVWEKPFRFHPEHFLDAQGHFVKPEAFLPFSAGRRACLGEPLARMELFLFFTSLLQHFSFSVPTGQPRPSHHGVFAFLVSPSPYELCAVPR
Experimental: as §1

[5] = biological target: CYP3A4 (Homo sapiens, UniProt P08684); test: CYP inhibition assay, CYP3A4; details: human liver microsomes 0.25 mg/ml, 10 μM, 15 minutes
Sequence of CYP3A4 (P08684 whole entry): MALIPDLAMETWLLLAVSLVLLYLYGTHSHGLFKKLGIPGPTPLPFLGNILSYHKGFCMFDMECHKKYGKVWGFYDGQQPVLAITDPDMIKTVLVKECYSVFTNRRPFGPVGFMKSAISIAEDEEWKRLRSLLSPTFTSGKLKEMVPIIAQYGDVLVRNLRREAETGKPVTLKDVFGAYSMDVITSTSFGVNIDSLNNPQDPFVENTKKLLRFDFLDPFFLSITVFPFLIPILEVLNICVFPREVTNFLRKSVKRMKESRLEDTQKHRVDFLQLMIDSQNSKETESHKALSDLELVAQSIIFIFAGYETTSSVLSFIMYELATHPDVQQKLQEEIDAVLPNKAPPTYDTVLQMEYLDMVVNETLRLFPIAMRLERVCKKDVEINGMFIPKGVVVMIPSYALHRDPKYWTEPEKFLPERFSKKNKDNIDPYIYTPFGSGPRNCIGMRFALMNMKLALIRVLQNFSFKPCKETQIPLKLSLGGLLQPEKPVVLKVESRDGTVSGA
Experimental: as §1

SMILES: CC(C)C[C@H](NC(=O)CN)C(=O)N[C@@H](Cc1ccc(O)cc1)C(=O)N[C@@H](Cc1ccc(O)cc1)C(=O)N[C@@H](Cc1ccccc1)C(=O)O [APN5, NH2-GLYYF-OH]
- AMPK phosphorylation activity (fold change) [1]: 1.0 fold change
- CYP inhibition (% of control activity) CYP1A2 [2]: 88.8 % of control activity
- CYP inhibition (% of control activity) CYP2C19 [3]: 98.5 % of control activity
- CYP inhibition (% of control activity) CYP2D6 [4]: 92.3 % of control activity
- CYP inhibition (% of control activity) CYP3A4 [5]: 82.9 % of control activity
